# From patent publication US12240870B2, “Sequencing method for CAR T cell therapy” (Purdue Research Foundation, priority 2018, dated 2025)
# What was measured:
# [1] = EC17 dose finding and CRS assessment in tumor-free mice; type: in vivo, NSG mice
# Description: Panel A: Schematic diagram to show dose scheduling of CAR-T cells (˜10 million “clinical facsimile”) plus EC17 dosed 3 different ways in NSG mice without or with pre-established MDA-MB-231 xenografts. Tumor-free mice received EC17 SIW 500 nmol/kg (2 doses on days 2 and 10). Tumor-bearing mice received EC17 as follows: EC17 SIW 500 nmol/kg (5 doses on days 2, 10, 17, 24, and 31), EC17 M/Th/M_Escalation-1 (repeats of 5/50/500 nmol/kg on Monday/Thursday/Monday followed by 1-week break, i,e. on days 2, 6, 10, 17, 20, 24, and 31), or EC17 M/Th/M_Escalation-2 (repeats of 5/100/1000 nmol/kg on Monday/Thursday/Monday followed by 1-week break, i.e. days 2, 6, 10, 17, 20, 24, and 31). Panel B: Systemic levels of human IFNγ on a log 2 scale detected in mouse plasma on days 11 and 12 after CAR-T cell injection in tumor-bearing versus tumor-free mice (i.e., ˜20 and 42 hours after the previous EC17 dose in all treated cohorts). Panel C: Circulating CAR-T cells in mouse blood identified as human CD3ε+ EGFRt+ events by flow cytometry and enumerated per 100 μL of whole blood. Panel D: Measurements of change in body weight and tumor volume in tumor-bearing mice that received CAR-T cells only or CAR-T cells plus EC17 dosed 3 different ways (dashed lines indicated each EC17 dose). n=5 mice per group. All data represent mean±s.e.m. * p<0.05 by one-way ANOVA test. […]
# MDA-MB-231 xenografts = test: EC17 dose finding and CRS assessment in MDA-MB-231 tumor-bearing mice; type: in vivo; conditions: for human IFNγ in mouse plasma, fold over tumor-bearing mice with CAR-T cells only: all EC17 treated tumor cohorts
# Description: Panel A: Schematic diagram to show dose scheduling of CAR-T cells (˜10 million “clinical facsimile”) plus EC17 dosed 3 different ways in NSG mice without or with pre-established MDA-MB-231 xenografts. Tumor-free mice received EC17 SIW 500 nmol/kg (2 doses on days 2 and 10). Tumor-bearing mice received EC17 as follows: EC17 SIW 500 nmol/kg (5 doses on days 2, 10, 17, 24, and 31), EC17 M/Th/M_Escalation-1 (repeats of 5/50/500 nmol/kg on Monday/Thursday/Monday followed by 1-week break, i,e. on days 2, 6, 10, 17, 20, 24, and 31), or EC17 M/Th/M_Escalation-2 (repeats of 5/100/1000 nmol/kg on Monday/Thursday/Monday followed by 1-week break, i.e. days 2, 6, 10, 17, 20, 24, and 31). Panel B: Systemic levels of human IFNγ on a log 2 scale detected in mouse plasma on days 11 and 12 after CAR-T cell injection in tumor-bearing versus tumor-free mice (i.e., ˜20 and 42 hours after the previous EC17 dose in all treated cohorts). Panel C: Circulating CAR-T cells in mouse blood identified as human CD3ε+ EGFRt+ events by flow cytometry and enumerated per 100 μL of whole blood. Panel D: Measurements of change in body weight and tumor volume in tumor-bearing mice that received CAR-T cells only or CAR-T cells plus EC17 dosed 3 different ways (dashed lines indicated each EC17 dose). n=5 mice per group. All data represent mean±s.e.m. * p<0.05 by one-way ANOVA test.
# All animal care and use were performed according to NIH guidelines and in compliance with protocols approved by the Purdue University Animal Use and Care Committee. Female 4 to 5-week-old NOD/SCID gamma (NSG™) mice (stock number: 005557) were purchased from The Jackson Laboratory (Bar Harbor, ME). Unless specifically indicated, all animals were maintained on a FA-deficient diet (TestDiet, St. Louis, MO) upon arrival and throughout the study. To establish subcutaneous xenografts, MDA-MB-231 and HOS-FRα were implanted in the right flank region at 2.5×10^6 and 1×10^6 cells per animal, respectively. For intravenous xenografts, THP1-FRβ cells were inoculated at 5×10^6 cells per animal. Subcutaneous tumors were measured 2-3 times per week with a caliper and calculated using the ellipsoidal formula (length×width^2)/2. […] All animal doses (CAR-T cells, EC17, sodium fluorescein) were given intravenously.
# In a therapeutic setting, EC17 CAM can be given before or after CAR-T cell injection. As described herein, the first dose of EC17 was administered 2-3.5 days after CAR-T cells to allow for an observation period of human T cells in tumor-bearing mice. Two batches of unsorted E2-CAR-T cells (23% or 39% EGFRt+, 1:1 CD4/CD8) were used for in vivo studies. On the day of infusion for each experiment (day 0), frozen CAR-T cells were quickly thawed at 37° C., washed 2× with Dulbecco's 1×PBS (pH 7.4) and injected into the tail vein at desired EGFRt+ E2-CAR-T cell doses. In addition, a small aliquot of CAR-T cells was analyzed by flow cytometry for CD4 to CD8 ratio and differentiation status of CAR-T cells. On the first day of EC17 dose, tumor-bearing animals were randomly assigned into groups according to their tumor sizes or the same number of days post intravenous implantation (i.e., THP1-FRβ).
# For MDA-MB-231 studies, mice received a high dose (˜10 million) of a “clinical facsimile” of E2-CAR-T cells (˜39% EGFRt+) with a low differentiation profile (FIG. 9). Two days later, 3 different treatment regimens of EC17 were started at an average tumor size of ˜293±39 mm^3 (FIG. 12). The EC17 dosing was given once-a-week (SIW) at 500 nmol/kg on Mondays, or as escalating doses of 5, 50 or 100, and 500 or 1000 nmol/kg (i.e., 5/50/500 or 5/100/1000) on Monday, Thursday, and Monday with a 6-day break in-between cycles. Control mice were left untreated (received CAR-T cells but no EC17). For comparison, a cohort of tumor-free littermates also received the same number of CAR-T cells without or with EC17 SIW at 500 nmol/kg. […]
smiles,measurement,setting,value
"Nc1nc2ncc(CNc3ccc(C(=O)N[C@@H](CCC(=O)NCCNC(=S)Nc4ccc(-c5c6ccc(=O)cc-6oc6cc(O)ccc56)c(C(=O)O)c4)C(=O)O)cc3)nc2c(=O)[nH]1 [EC17, FA-(γ)-ethylenediamine-FITC]",body weight loss,"[1]; tumor-free mice, two weekly doses of EC17 at 500 nmol/kg",no CRS symptoms (grade 0 out of a 0-5 scale) or body weight loss was observed
same,human IFNγ in mouse plasma,"[1]; tumor-free, CAR-T cells plus EC17, days 11 and 12",low levels of IFNγ were detected
same,cures,"MDA-MB-231 xenografts; EC17-treated cohorts (SIW, Escalation-1, Escalation-2)",100%
same,body weight loss,MDA-MB-231 xenografts; EC17 Escalation-2 regimen 5/100/1000 nmol/kg M/Th/M,persistent body weight loss
same,onset of CRS and body weight loss,MDA-MB-231 xenografts; EC17 SIW at 500 nmol/kg,earliest onset of CRS and body weight loss
same,"human IFNγ in mouse plasma, fold over tumor-bearing mice with CAR-T cells only","MDA-MB-231 xenografts; day 11 (~20 hours after previous EC17 dose), ~10 million CAR-T",~30 ×
same,"human IFNγ in mouse plasma, fold over tumor-bearing mice with CAR-T cells only","MDA-MB-231 xenografts; day 12 (~42 hours after previous EC17 dose), ~10 million CAR-T",~10 ×
same,body weight loss,"MDA-MB-231 xenografts; tumor-bearing cohorts, continued EC17 dosing independent of the regimen",significant body weight losses
same,CRS grade,"MDA-MB-231 xenografts; tumor-bearing cohorts, continued EC17 dosing independent of the regimen, ~10 million CAR-T",2-3
